Experimental data reported in US20050124607A1, “5-Substituted quinazolinone compounds useful as alpha 1A/B adrenergic receptor antagonists” (priority 2003, published 2005).

First: COc1cc2[nH]c(N3CCN(c4cc(C)ccn4)CC3)nc(=O)c2c(OC)c1OC [Example 25, 5,6,7-Trimethoxy-2-[4-(4-meth-yl-pyridin-2-yl)-pipe-razin-1-yl]-1H-quina-zolin-4-one]
Second: COc1ccnc(N2CCN(c3nc(=O)c4c(OC)c(OC)c(OC)cc4[nH]3)CC2)c1 [Example 30, 5,6,7-Trimethoxy-2-[4-(4-meth-oxy-pyridin-2-yl)-pipe-razin-1-yl]-1H-quina-zolin-4-one]
The melting point of the first is higher: 235.3 to 235.5 °C for the first, 229 to 231 °C for the second.

First: COc1cc2[nH]c(N3CCN(c4cccc[n+]4[O-])CC3)nc(=O)c2c(OC)c1OC [Example 26, 5,6,7-Trimethoxy-2-[4-(1-oxy-py-ridin-2-yl)-pipe-razin-1-yl]-1H-quina-zolin-4-one]
Second: COc1cc2[nH]c(N3CCN(c4nccn4C)CC3)nc(=O)c2c(OC)c1OC [Example 28, 5,6,7-Trimethoxy-2-[4-(1-meth-yl-1H-imidazol-2-yl)-pipe-razin-1-yl]-1H-quina-zolin-4-one]
The melting point of the first is lower: 142.8 to 147.2 °C for the first, 227 to 229 °C for the second.

First: COc1cc2[nH]c(N3CCN(c4cccc(C)n4)CC3)nc(=O)c2c(C)c1OC [Example 42, 6,7-Dimethoxy-5-meth-yl-2-[4-(6-methyl-py-ridin-2-yl)-piperazin-1-yl]-1H-quina-zolin-4-one]
Second: COc1cc2[nH]c(N3CCc4c(cccc4/N=C(\C)N(C)C)C3)nc(=O)c2c(C)c1OC [Example 98, N′-[2-(6,7-Dimethoxy-5-meth-yl-4-oxo-1,4-di-hydro-quinazolin-2-yl)-1,2,3,4-tetra-hydro-iso-quinolin-5-yl]-N,N-di-methyl-acetamidine]
The melting point of the first is higher: 284.5 to 285.5 °C for the first, 270.9 to 273.5 °C for the second.

First: COC[C@@H]1CCCN1CCC1CCN(c2nc(=O)c3c(C)c(OC)c(OC)cc3[nH]2)CC1 [Example 51, 6,7-Dimethoxy-2-{4-[2-((S)-2-meth-oxymethyl-pyr-rolidin-1-yl)-ethyl]-pipe-ridin-1-yl}-5-meth-yl-1H-quinazolin-4-one]
Second: COC[C@H]1CCCN1CCC1CCN(c2nc(=O)c3c(C)c(OC)c(OC)cc3[nH]2)CC1 [Example 57, 6,7-Dimethoxy-2-{4-[2-((R)-2-meth-oxymethyl-pyr-rolidin-1-yl)-ethyl]-pipe-ridin-1-yl}-5-meth-yl-1H-quinazolin-4-one]
The melting point of the first is lower: 83.1 to 110.9 °C for the first, 219 to 221.9 °C for the second.

First: COc1cc2[nH]c(N3CCC(OCc4ccccc4S(=O)(=O)N(C)C)CC3)nc(=O)c2c(C)c1OC [Example 61, 2-[1-(6,7-Dimethoxy-5-meth-yl-4-oxo-1,4-di-hydro-quinazolin-2-yl)-pipe-ridin-4-yl-oxymethyl]-N,N-dimethyl-benzene-sulfonamide]
Second: COc1cc2[nH]c(N3CCC(OCc4ccccc4S(=O)(=O)N(C)C)CC3)nc(=O)c2c(OC)c1OC [Example 77, N,N-Dimethyl-2-[1-(5,6,7-tri-methoxy-4-oxo-1,4-di-hydro-quinazolin-2-yl)-pipe-ridin-4-yloxy-methyl]-benzene-sulfonamide]
The melting point of the first is higher: 217.9 to 219.8 °C for the first, 186 to 188.2 °C for the second.

First: COc1cc2[nH]c(N3CCC(Cc4ccccc4)CC3)nc(=O)c2c(OC)c1OC [Example 63, 2-(4-Benzyl-piperidin-1-yl)-5,6,7-tri-methoxy-1H-quina-zolin-4-one]
Second: COc1cc2[nH]c(N3CCC(Cc4cccc(C(=O)O)c4)CC3)nc(=O)c2c(OC)c1OC [Example 79, 3-[1-(5,6,7-Trimethoxy-4-oxo-1,4-di-hydro-quina-zolin-2-yl)-pipe-ridin-4-ylmethyl]-benzoic acid]
The melting point of the first is lower: 212 to 215 °C for the first, 245 to 249 °C for the second.

COC[C@@H]1CCCN1CCC1CCN(c2nc(=O)c3c(OC)c(OC)c(OC)cc3[nH]2)CC1 [Example 69, 5,6,7-Trimeth-oxy-2-{4-[2-((S)-2-meth-oxymethyl-pyr-rolidin-1-yl)-ethyl]-pipe-ridin-1-yl}-1H-quina-zolin-4-one] and COC[C@H]1CCCN1CCC1CCN(c2nc(=O)c3c(OC)c(OC)c(OC)cc3[nH]2)CC1 [Example 70, 5,6,7-Trimeth-oxy-2-{4-[2-((R)-2-meth-oxymethyl-pyr-rolidin-1-yl)-ethyl]-pipe-ridin-1-yl}-1H-quina-zolin-4-one] cannot be ordered by melting point: 78.8 to 91.6 °C for the first, 65 to 79.1 °C for the second.

First: COc1cc2[nH]c(N3CCC(OCc4cccc(N(S(C)(=O)=O)S(C)(=O)=O)c4)CC3)nc(=O)c2c(OC)c1OC [Example 80, N-Methane-sulfonyl-N-{3-[1-(5,6,7-tri-methoxy-4-oxo-1,4-di-hydro-quina-zolin-2-yl)-pipe-ridin-4-yloxy-methyl]-phenyl}-methane-sulfonamide]
Second: COc1cc2[nH]c(N3CCC(OCc4cccc(/N=C(\C)N(C)C)c4)CC3)nc(=O)c2c(OC)c1OC [Example 81, N,N-Dimethyl-N′-{3-[1-(5,6,7-tri-methoxy-4-oxo-1,4-di-hydro-quinazolin-2-yl)-pipe-ridin-4-yloxy-methyl]-phenyl}-acetamidine]
The melting point of the first is higher: 100.7 to 160.4 °C for the first, 56 to 64.9 °C for the second.

First: COc1cc2[nH]c(N3CCc4ccc(/N=C(\C)N(C)C)cc4C3)nc(=O)c2c(OC)c1OC [Example 103, N,N-Dimethyl-N′-[2-(5,6,7-tri-methoxy-4-oxo-1,4-di-hydro-quinazolin-2-yl)-1,2,3,4-tetra-hydro-isoquinolin-7-yl]-acetamidine]
Second: CCCC(=N)Nc1cccc2c1CCN(c1nc(=O)c3c(OC)c(OC)c(OC)cc3[nH]1)C2 [Example 115, N-[2-(5,6,7-Trimethoxy-4-oxo-1,4-di-hydro-quina-zolin-2-yl)-1,2,3,4-tetra-hydro-isoquinolin-5-yl]-butyramidine]
The melting point of the first is lower: 115.8 to 120.1 °C for the first, 192.2 to 193.5 °C for the second.

First: COCCOc1c(OC)c(OC)cc2[nH]c(N3CCc4cc(OC)c(OC)cc4C3)nc(=O)c12 [Example 105, 2-(6,7-Dimethoxy-3,4-di-hydro-1H-isoquinolin-2-yl)-6,7-di-methoxy-5-(2-meth-oxy-ethoxy)-1H-quina-zolin-4-one]
Second: COc1cc2c(cc1OC)CN(c1nc(=O)c3c(OCCO)c(OC)c(OC)cc3[nH]1)CC2 [Example 111, 2-(6,7-Dimethoxy-3,4-di-hydro-1H-isoquinolin-2-yl)-5-(2-hy-droxy-ethoxy)-6,7-di-methoxy-1H-quinazolin-4-one]
The melting point of the first is lower: 202.4 to 204.4 °C for the first, 224 to 229 °C for the second.

First: COc1cc2c(cc1OC)CN(c1nc(=O)c3c(OCC4CC4)c(OC)c(OC)cc3[nH]1)CC2 [Example 108, 5-Cyclopropylmethoxy-2-(6,7-di-methoxy-3,4-di-hydro-1H-isoquinolin-2-yl)-6,7-di-methoxy-1H-quinazolin-4-one]
Second: COc1cc2c(cc1OC)CN(c1nc(=O)c3c(Oc4ccccc4)c(OC)c(OC)cc3[nH]1)CC2 [Example 113, 2-(6,7-Dimethoxy-3,4-di-hydro-1H-isoquinolin-2-yl)-6,7-di-methoxy-5-phe-noxy-1H-quinazolin-4-one]
The melting point of the first is lower: 214 to 215.8 °C for the first, 238.7 to 241.9 °C for the second.

COc1cc2c(cc1OC)CN(c1nc(=O)c3c(OCCOCc4ccccc4)c(OC)c(OC)cc3[nH]1)CC2 [Example 112, 5-(2-Benzyloxy-ethoxy)-2-(6,7-di-methoxy-3,4-di-hydro-1H-isoquinolin-2-yl)-6,7-di-methoxy-1H-quinazolin-4-one] showed a melting point of 197 to 201.9 °C.
